Reference: patent US9994890B1, “Methods of natural product drug discovery” (priority 2012, dated 2018)
Like-named read-outs stand apart in the source and are kept apart here. Starred links: 1 amine or outer side, 2 acyl side, 3 side chain; linkers in the order of their positions; H or OH if unused. Positions of bridges follow the written chain, without caps; N, C: chain ends. Non-standard residues stand in square brackets, D forms with d. Residues, ends and D or L forms follow the SMILES beside them. Chains are numbered I, II in the order given. Actinocin(9to1) = Cc1c2oc3c(C)ccc(C(=O)[*:1])c3nc-2c(C(=O)[*:2])c(N)c1=O; NMeV = CN[C@H](C(=O)O)C(C)C; Sar = CNCC(=O)O

Tests used:
[1] = test system: mutants obtained by selection of the S. aureus strain RN4220; test: MIC determination, mutants obtained by selection on antibiotic agar; assay type: cell-based, Staphylococcus aureus; conditions: for MIC of the mutant: Table 1, mutant resistant to the antibiotic of the same line; for MIC: Staphylococcus aureus, read-out: MIC of the mutant
Method: (§1) The majority of mutants were obtained by selection of the S. aureus strain RN4220 on agar plates in presence of an antibiotic. Briefly, the minimal inhibitory concentration (“MIC”) of the wildtype strain RN4220 was determined. For this purpose a liquid culture with an OD of 0.5 was added as a dilution of 1:100 in Mueller-Hinton broth to each well of a 96-well plate containing a dilution series of a certain antibiotic. The 96-well plate was incubated at 37° C. overnight. The lowest antibiotic concentration where no growth of bacteria could be determined is defined as the MIC value of this strain.
To select first-step mutants agar plates containing an antibiotic concentration of 0.5×-, 1×-, 2×-, 3×- and 5×MIC were prepared and approximately 1×10^8 cells were plated and incubated overnight. Colonies grown on the plate with the highest antibiotic concentration were subcultured in liquid MH-media containing the same concentration of antibiotic to avoid loss of resistance. This culture was used to prepare a 25% glycerol stock that is stored at −80° C. To test the stability of resistance each strain was subcultured again either in presence of an antibiotic or in media without any antibiotics. After that both cultures were plated on agar plates. In case of a stable mutation that leads to the resistance no difference in growth behavior of the liquid culture or the cultures plated on agar plates should be noticed. The MIC of the mutants was determined.
After the successful selection of eight first-step mutants the experiment was repeated in a same manner as described above to obtain mutants having a resistance to much higher concentration of antibiotic. With the exception of the actinomycin D mutant, additional mutants were obtained. Again the MIC-values for the new mutants were determined.

S. aureus strain RN4220 = test: MIC determination, wildtype strain RN4220 (96-well dilution series, Mueller-Hinton broth); assay type: cell-based, Staphylococcus aureus; conditions: for MIC: Staphylococcus aureus, RN4220
Method: as §1

[2] = test system: strains NRS106, NRS107, NRS128 and NRS129; test: MIC determination, mutants purchased from NARSA; assay type: cell-based, Staphylococcus aureus; conditions: for MIC: Staphylococcus aureus, read-out: MIC of the mutant
Method: Four strains from NARSA (Network on Antimicrobial Resistance in Staphylococcus aureus) could be purchased. The strains NRS106, NRS107, NRS128 and NRS129 show resistances against the antibiotics gentamicin, mupirocin, erythromycin and chloramphenicol.
as §1

[3] = test system: ten strains of Staphylococcus aureus, each resistant to a different, known, antibiotic; test: Small scale experiment: panel of ten resistant strains in a microplate; assay type: cell-based; conditions: Example 1, FIG. 1
Method: In a small scale experiment, ten strains of Staphylococcus aureus, each resistant to a different, known, antibiotic, were generated. These strains were added to the wells of a microplate. […] Thus, it was determined that each strain of Staphylococcus aureus was resistant to at least one of ten known antibiotics (FIG. 1).
In this way, it was shown that linezolid was not part of the initial set of ten antibiotics. In other words, the panel of ten Staphylococcus aureus strains used allowed dereplication of the ten antibiotics with no need for analytical chemistry. This experiment establishes that the panel of ten strains can be scaled up to several thousand strains, which will be collectively resistant to as many known antibiotics, and screen sources of unknown compounds (e.g., microbial or eukaryotic cell spent media, cell and tissue extracts, combinatorial libraries, etc.). Using such a large scale screen allows identification of a source containing an antimicrobial activity that is unique from the thousands of known antibiotics, and thus a likely source of a novel antibiotic. Similarly, and using either microbial spent media or individual compounds from chemical libraries, a search can be performed for novel compounds with anticancer, anti-inflammatory, or other desired properties.

[4] = Table 1, 37° C. overnight, read-out: MIC of wildtype RN4220
[5] = Table 2, read-out: MIC of wilcitype RN4220

## Cc1c2oc3c(C)ccc(C(=O)N[C@@H]4C(=O)N[C@H](C(C)C)C(=O)N5CCC[C@H]5C(=O)N(C)CC(=O)N(C)[C@@H](C(C)C)C(=O)O[C@@H]4C)c3nc-2c(C(=O)N[C@@H]2C(=O)N[C@H](C(C)C)C(=O)N3CCC[C@H]3C(=O)N(C)CC(=O)N(C)[C@@H](C(C)C)C(=O)O[C@@H]2C)c(N)c1=O [Actinomycin D] (I: T[dV]P[Sar][NMeV] / II: T[dV]P[Sar][NMeV]; ester I:1-I:C, II:1-II:C; linker I:N-II:N via Actinocin(9to1))
[1]
  MIC of the mutant: 12.48 µg/mL
S. aureus strain RN4220; Table 1, 37° C. overnight
  MIC of wildtype RN4220: 1.56 µg/mL

## CC1(C)S[C@@H]2[C@H](NC(=O)[C@H](N)c3ccccc3)C(=O)N2[C@H]1C(=O)O [Ampicillin]
[1]
  MIC: 300 µg/mL
S. aureus strain RN4220; [4]
  MIC: 0.2 µg/mL

## O=C(N[C@H](CO)[C@H](O)c1ccc([N+](=O)[O-])cc1)C(Cl)Cl [Chloramphenicol]
[2]
  MIC: 12.5 µg/mL
S. aureus strain RN4220; [5]
  MIC: 62.5 µg/mL

## CC[C@H]1OC(=O)[C@H](C)[C@@H](O[C@H]2C[C@@](C)(OC)[C@@H](O)[C@H](C)O2)[C@H](C)[C@@H](O[C@@H]2O[C@H](C)C[C@H](N(C)C)[C@H]2O)[C@](C)(O)C[C@@H](C)C(=O)[C@H](C)[C@@H](O)[C@]1(C)O [Erythromycin]
[2]
  MIC: 0.8 µg/mL

## C/C(=C\C(=O)OCCCCCCCCC(=O)O)C[C@@H]1OC[C@H](C[C@@H]2O[C@H]2[C@@H](C)[C@H](C)O)[C@@H](O)[C@H]1O [Mupirocin]
[2]
  MIC: 25 µg/mL
S. aureus strain RN4220; [5]
  MIC: 500 µg/mL

## CO[C@@H]1[C@@H](OC(N)=O)[C@@H](O)[C@H](Oc2ccc3c(O)c(NC(=O)c4ccc(O)c(CC=C(C)C)c4)c(=O)oc3c2C)OC1(C)C [Novobiocin]
[1]
  MIC: 12.5 µg/mL
S. aureus strain RN4220; [4]
  MIC: 0.05 µg/mL

## CC1COc2c(N3CCN(C)CC3)c(F)cc3c(=O)c(C(=O)O)cn1c23 (centres unmarked) [Ofloxacin]
[1]
  MIC: 1.5 µg/mL
S. aureus strain RN4220; [4]
  MIC: 0.4 µg/mL

## CO[C@H]1/C=C/O[C@@]2(C)Oc3c(C)c(O)c4c(O)c(c(/C=N/N5CCN(C)CC5)c(O)c4c3C2=O)NC(=O)/C(C)=C\C=C\[C@H](C)[C@H](O)[C@@H](C)[C@@H](O)[C@@H](C)[C@H](OC(C)=O)[C@@H]1C [Rifampicin]
[1]
  MIC: 250 µg/mL
S. aureus strain RN4220; [4]
  MIC: 0.008 µg/mL

## [H]/N=C(/N)N[C@H]1[C@H](O)[C@@H](O)[C@H](O[C@@H]2O[C@@H](C)[C@](O)(C=O)[C@H]2O[C@@H]2O[C@@H](CO)[C@H](O)[C@@H](O)[C@@H]2NC)[C@@H](N/C(N)=N\[H])[C@@H]1O [Streptomycin]
S. aureus strain RN4220; [4]
  MIC: 25 µg/mL

## CN(C)[C@@H]1C(=O)C(C(N)=O)=C(O)[C@@]2(O)C(=O)C3=C(O)c4c(O)cccc4[C@@](C)(O)[C@H]3C[C@@H]12 [Tetracyclin]
[1]
  MIC of the mutant: 3.9 µg/mL
S. aureus strain RN4220; Table 1, 37° C. overnight
  MIC of wildtype RN4220: 0.1 µg/mL

## CN[C@H](CC(C)C)C(=O)N[C@H]1C(=O)N[C@@H](CC(N)=O)C(=O)N[C@H]2C(=O)N[C@H]3C(=O)N[C@H](C(=O)N[C@H](C(=O)O)c4cc(O)cc(O)c4-c4cc3ccc4O)[C@H](O)c3ccc(c(Cl)c3)Oc3cc2cc(c3O[C@@H]2O[C@H](CO)[C@@H](O)[C@H](O)[C@H]2O[C@H]2C[C@](C)(N)[C@H](O)[C@H](C)O2)Oc2ccc(cc2Cl)[C@H]1O [Vancomycin]
[1]
  MIC: 2000 µg/mL
S. aureus strain RN4220; [4]
  MIC: 1.56 µg/mL

## CC(=O)NC[C@H]1CN(c2ccc(N3CCOCC3)c(F)c2)C(=O)O1 [linezolid]
[3]
  microbial growth in the wells containing the ten resistant strains: suppressed the growth in all the wells

## Gentamicin
[2]; Table 2, NARSA strain named in the same line
  MIC of the mutant: 0.8 µg/mL
S. aureus strain RN4220; Table 2
  MIC of wilcitype RN4220: 250 µg/mL
